Source: PMC6624297 (Cell Death & Disease, 2019)

What was measured:
HepG2 cells = assay: MTT assay HepG2; format: cell-based; conditions: Homo sapiens, 24h of treatment, mean ± SD
Procedure: Details are given in Supplementary Materials and Methods. Using probability unit and weighted regression method to calculate the IC50 value of compounds.
Total cells in the logarithmic growth phase were collected, digested using 0.25% pancreatic enzymes, and then diluted into single-cell suspensions using phosphate-buffered solution (PBS). These cells were seeded into 96-well plates at 4× 10^3-5× 10^3 cells per well (100 µL per well) and then A549, H460, OVCAR-3, SGC7901, MDA-MB-231, HCT116 and HepG2 were cultured at 37°Cin an incubator containing 5% CO2. After cell complete attachment, 100 µL of different concentrations of compounds (0.625 μM, 1.25 μM, 2.5μM, 5 μM, 10 μM) were added to the cells after the nutrient solution in each well was discarded, while no compound except 0.1% DMSO was added to cells in the control group; at the same time, each concentration was set up to 5 wells. In addition, 5 wells in each 96-well plate only received 100 µL of nutrient solution as a blank control. The plates were taken out after the cells were incubated with compounds for 24 h, and 20 µL of MTT solution (5 mg/mL) (Wuhan Boster Biotechnology Limited Company, Wuhan, China; item No. AR1156) was added into all the wells. After another time of incubation for 4 h at 37 °C, the nutrient solution in each well was discarded slowly, and 150 µL of DMSO was added to each well. The plates were shaken on a shaking table for 20 min. When the crystals were fully dissolved, the blank wells were used to zero the plate reader. The optical density (OD) of each well was detected at 490 nm. The IC50 value was determined as the concentration of the inhibitor that caused 50% inhibition. Using probability unit and weighted regression method to calculate the IC50 value of compounds.

LO2 cell line = assay: Selectivity index against LO2; format: cell-based; conditions: SI = CC50/IC50
H460 cells [1] = assay: Annexin V/PI staining flow cytometry, H460; format: cell-based, human; conditions: 24 h
Procedure: The density of the A549 cells and H460 in the logarithmic growth phase was adjusted to 1 × 10^6 cells/mL, and a total of 1 mL of cell suspension and 1 mL of L14e at different concentrations were added into each well with the final compound L14e concentration in each group as 0, 0.5, 1.0, and 1.5 μM. Details are given in Supplementary Materials and Methods.
The density of the A549 cells and H460 in the logarithmic growth phase was adjusted to 1 × 10^6 cells/mL, and then the cell suspension was seeded into a 6-well plate (Becton Dickinson and Company, USA). A total of 1 mL of cell suspension and 1 mL of compound L14e at different concentrations were added into each well with the final compound L14e concentration in each group as 0 μM, 0.5 μM, 1.0 μM, and 1.5μM. After cells were incubated for 24 h at 37 °C, 1 mL of cell suspension per well was collected and centrifuged at 1000 r/min for 10 min at 4°C, and the supernatant was removed. Then, 1 mL of cold PBS was added to the cell pellet, and was shaken lightly to re-suspend the cells. The cells were centrifuged at 1000 r/min at 4 °C for 10 min, and the supernatant was removed. These steps were repeated twice. The cells were re-suspended in 150µL of PBS, 10 µL of fluorescein isothiocyanate (FITC)-labeled Annexin V (Annexin V-FITC) (Promega Corporation, USA) and 5 µL of PI (Promega Corporation, USA) were added. The mixture was gently mixed and incubated in the dark at room temperature for 10 min then stained cells were analyzed using flow cytometry to test the levels of apoptotic cells (Becton Dickinson and Company, USA; FACS Calibur).

H460 cells [2] = assay: Transwell migration and wound healing, H460; format: cell-based, human; conditions: H460, 0.5, 1.0, 1.5 μM, 24 h
Procedure: Cell migration ability was measured using transwell chambers (8-μm pore size; Corning Costar, Cambridge, MA, USA). For the transwell assay, A549 and H460 cells suspended in serum-free RPMI-1640 medium containing different concentrations of L14e (0, 0.5, 1.0, and 1.5 μM) were seeded into the upper chamber. The lower chamber contained RPMI-1640 medium supplemented with 20% serum. After 24 h incubation, the filters were fixed in methanol and stained with 0.1% crystal violet. The upper faces of the filters were gently abraded, and the lower faces with cells migrated across the filters were imaged and counted under the microscope. For wound healing assays, cells were placed into 6-well plates and cultured until 100% confluence. An artificial scratch was created using a 200 μL pipette tip. Add serum-free RPMI-1640 medium containing different concentrations of drugs. At 24 h after culturing in serum-free medium, wound closure images were captured in the same field under magnification. Cell healing rates were calculated by the fraction of cell coverage across the line. These experiments were performed in triplicate and repeated three times.

O=C(Nc1cccc(Cl)c1)Nc1ccccc1NS(=O)(=O)c1c[nH]c(=O)[nH]c1=O [Compound L14e, N'-(3-chlorophenyl)-2-(2,4-dihydroxypyrimidine-5-sulfonamido)phenyl urea]
IC50 (HepG2 cells): 1360 ± 130 nM | SI (Selectivity index) LO2 (LO2 cell line): 12.58 | apoptotic rate (H460 cells [1]; H460, 0.5 μM): 6.4% | early apoptosis rate (Q4, Annexin V [+] PI [−]) (H460 cells [1]; H460, 0.5 μM): 3.9% | apoptotic rate (H460 cells [1]; H460, 1.0 μM): 21.8% | early apoptosis rate (Q4, Annexin V [+] PI [−]) (H460 cells [1]; H460, 1.0 μM): 15.1% | apoptotic rate (H460 cells [1]; H460, 1.5 μM): 24.4% | early apoptosis rate (Q4, Annexin V [+] PI [−]) (H460 cells [1]; H460, 1.5 μM): 17.3% | effect on cell migration (H460 cells [2]): significantly inhibited the migration
